Measured values from US10681909B2, “Herbicidal triazoles” (FMC Corporation, priority 2014, dated 2020).

Legend:
[1] = system: field violet; experiment: Test D preemergence; type: in vivo, Viola arvensis; details: for Plant response rating (0 to 100), Field Violet: 16 g ai/ha, 0 is no effect, 100 is complete control; for Plant response rating: Field Violet: scale 0 to 100
Excerpt: (§1) Seeds of plant species selected from bluegrass (annual bluegrass, Poa annua), blackgrass (Alopecurus myosuroides), canarygrass (Phalaris minor), chickweed (common chickweed, Stellaria media), galium (catchweed bedstraw, Galium aparine), bromegrass, down (downy bromegrass, Bromus tectorum), Russian thistle (Salsola kali), field poppy (Papaver rhoeas), field violet (Viola arvensis), foxtail, green (green foxtail, Setaria viridis), deadnettle (henbit deadnettle, Lamium amplexicaule), ryegrass, Ital. (Italian ryegrass, Lolium multiflorum), kochia (Kochia scoparia), lambsquarters (Chenopodium album), oilseed rape (Brassica napus), pigweed (Amaranthus retroflexus), chamomile (scentless chamomile, Matricaria inodora), speedwell (bird's-eye speedwell, Veronica persica), barley, spring (spring barley, Hordeum vulgare), wheat, spring (spring wheat, Triticum aestivum), buckwheat, wild (wild buckwheat, Polygonum convolvulus), wild mustard (Sinapis arvensis), oat, wild (wild oat, Avena fatua), radish, wild (wild radish, Raphanus raphanistrum), […]), barley, winter (winter barley, Hordeum vulgare), and wheat, winter (winter wheat, Triticum aestivum) were planted into a silt loam soil and treated preemergence with test chemicals formulated in a non-phytotoxic solvent mixture which included a surfactant. At the same time, these species were planted in pots containing Sunshine Redi-Earth® planting medium comprising spaghnum peat moss, vermiculite, starter nutrients and dolomitic limestone and treated with postemergence applications of the test chemicals formulated in the same manner. Plants ranged in height from 2 to 18 cm (1- to 4-leaf stage). Treated plants and controls were maintained in a controlled growth environment for 14 to 21 d after which time all species were compared to controls and visually evaluated. […] A dash (-) response means no test result.

[2] = system: lambsquarters; experiment: Test C preemergence; type: in vivo, Chenopodium album; details: for Plant response rating (scale of 0 to 100 where 0 is no effect and 100 is complete control): Lambsquarters, preemergence; for Lambsquarters plant response rating (0 to 100): Preemergence, visual rating after 13 to 15 d
Excerpt: (§2) Seeds of plant species selected from blackgrass (Alopecurus myosuroides), ryegrass, Italian (Italian ryegrass, Lolium multiflorum), wheat (winter wheat, Triticum aestivum), galium (catchweed bedstraw, Galium aparine), corn (Zea mays), crabgrass, large (large crabgrass, Digitaria sanguinalis), foxtail, giant, (giant foxtail, Setaria faberii), johnsongrass (Sorghum halepense), lambsquarters (Chenopodium album), morningglory (Ipomoea coccinea), nutsedge, yellow (yellow nutsedge, Cyperus esculentus), pigweed (Amaranthus retroflexus), ragweed (common ragweed, Ambrosia elatior), soybean (Glycine max), barnyardgrass (Echinochloa crus-galli), oilseed rape (Brassica napus), waterhemp (common waterhemp, Amaranthus rudis), and velvetleaf (Abutilon theophrasti) were planted into a blend of loam soil and sand and treated preemergence with test chemicals formulated in a non-phytotoxic solvent mixture which included a surfactant. At the same time, plants selected from these crop and weed species and also chickweed (common chickweed, Stellaria media), oat, wild (wild oat, Avena fatua), and kochia (Kochia scoparia), were planted in pots containing Sunshine Redi-Earth® planting medium comprising spaghnum peat moss, vermiculite, starter nutrients and dolomitic limestone and treated with postemergence applications of test chemicals formulated in the same manner. Plants ranged in height from 2 to 18 cm (1- to 4-leaf stage) for postemergence treatments. […] A dash (-) response means no test result.

[3] = system: canarygrass; experiment: Test D postemergence; type: in vivo, Phalaris minor; details: scale 0 to 100
Excerpt: as §1

[4] = system: ryegrass, Italian; experiment: Test C preemergence; type: in vivo, Lolium multiflorum; details: for Ryegrass, Italian plant response rating (0 to 100): Preemergence, visual rating after 13 to 15 d; for Plant response rating (scale of 0 to 100 where 0 is no effect and 100 is complete control): Ryegrass, Italian, preemergence
Excerpt: as §2

[5] = system: ragweed; experiment: Test C preemergence; type: in vivo, Ambrosia elatior; details: for Ragweed plant response rating (0 to 100): Preemergence, visual rating after 13 to 15 d; for Plant response rating (scale of 0 to 100 where 0 is no effect and 100 is complete control): Ragweed, preemergence
Excerpt: as §2

[6] = system: ryegrass, Ital.; experiment: Test D preemergence; type: in vivo, Lolium multiflorum; details: for Plant response rating (0 to 100), Ryegrass, Ital.: 16 g ai/ha, 0 is no effect, 100 is complete control; for Plant response rating: Ryegrass, Ital.: scale 0 to 100
Excerpt: as §1

[7] = system: Russian thistle; experiment: Test D postemergence; type: in vivo, Salsola kali; details: scale 0 to 100
Excerpt: as §1

[8] = system: wheat; experiment: Test A preemergence; type: in vivo, Triticum aestivum; details: Triticum aestivum, pre-emergence, 240 h, 0 to 100 scale (0 no effect, 100 complete control), read-out: Plant response rating, Wheat; for plant injury at 125 g/ha: 125 g ai/ha; for plant injury at 500 g/ha: 500 g ai/ha, approx. 10 d
Method in brief: (§3)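 Plant seeds in loam soil blended with sand, then apply test chemical preemergence as a directed soil spray; in parallel, spray potted seedlings (one- to two-leaf, 2 to 10 cm) postemergence. Both treatments use a non-phytotoxic solvent mixture with surfactant.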

[9] = system: crabgrass, large; experiment: Test A preemergence; type: in vivo, Digitaria sanguinalis; details: Digitaria sanguinalis, pre-emergence, 240 h, 0 to 100 scale (0 no effect, 100 complete control), read-out: Plant response rating, Crabgrass, Large; for pest or weed control at 125 g/ha: 125 g ai/ha; for pest or weed control at 500 g/ha: 500 g ai/ha, approx. 10 d
Method in brief: as §3

Compound: FC(F)(F)COc1nc(-c2ccccc2)nn1Cc1ccnc(C(F)(F)F)c1 [Compound 24]
- Plant response rating (0 to 100), Field Violet [1]: 0
- Plant response rating: Field Violet ([1]; 62 g ai/ha): 80
- Plant response rating: Field Violet ([1]; 125 g ai/ha): 100
- Plant response rating (scale of 0 to 100 where 0 is no effect and 100 is complete control) ([2]; 125 g ai/ha): 85
- Plant response rating (scale of 0 to 100 where 0 is no effect and 100 is complete control) ([2]; 250 g ai/ha): 85
- Lambsquarters plant response rating (0 to 100) ([2]; 31 g ai/ha): 60
- Lambsquarters plant response rating (0 to 100) ([2]; 62 g ai/ha): 75
- Plant response rating: Canarygrass ([3]; 16 g ai/ha): 45
- Plant response rating: Canarygrass ([3]; 31 g ai/ha): 55
- Plant response rating: Canarygrass ([3]; 62 g ai/ha): 60
- Plant response rating: Canarygrass ([3]; 125 g ai/ha): 70
- Ryegrass, Italian plant response rating (0 to 100) ([4]; 31 g ai/ha): 5
- Ryegrass, Italian plant response rating (0 to 100) ([4]; 62 g ai/ha): 15
- Plant response rating (scale of 0 to 100 where 0 is no effect and 100 is complete control) ([4]; 125 g ai/ha): 85
- Plant response rating (scale of 0 to 100 where 0 is no effect and 100 is complete control) ([4]; 250 g ai/ha): 90
- Ragweed plant response rating (0 to 100) ([5]; 31 g ai/ha): 5
- Ragweed plant response rating (0 to 100) ([5]; 62 g ai/ha): 25
- Plant response rating (scale of 0 to 100 where 0 is no effect and 100 is complete control) ([5]; 125 g ai/ha): 25
- Plant response rating (scale of 0 to 100 where 0 is no effect and 100 is complete control) ([5]; 250 g ai/ha): 55
- Plant response rating (0 to 100), Ryegrass, Ital. [6]: 40
- Plant response rating: Ryegrass, Ital. ([6]; 62 g ai/ha): 40
- Plant response rating: Ryegrass, Ital. ([6]; 125 g ai/ha): 45
- Plant response rating: Russian Thistle ([7]; 16 g ai/ha): 65
- Plant response rating: Russian Thistle ([7]; 31 g ai/ha): 75
- Plant response rating: Russian Thistle ([7]; 62 g ai/ha): 85
- Plant response rating: Russian Thistle ([7]; 125 g ai/ha): 85

Compound: COc1nc(-c2ccc(Cl)cc2)nn1Cc1ccnc(C(F)(F)F)c1 [Compound 28]
- Plant response rating (0 to 100), Field Violet [1]: 65
- Plant response rating: Field Violet ([1]; 62 g ai/ha): 95
- Plant response rating: Field Violet ([1]; 125 g ai/ha): 100
- Plant response rating: Canarygrass ([3]; 16 g ai/ha): 25
- Plant response rating: Canarygrass ([3]; 31 g ai/ha): 30
- Plant response rating: Canarygrass ([3]; 62 g ai/ha): 45
- Plant response rating: Canarygrass ([3]; 125 g ai/ha): 50
- Plant response rating (0 to 100), Ryegrass, Ital. [6]: 25
- Plant response rating: Ryegrass, Ital. ([6]; 62 g ai/ha): 25
- Plant response rating: Ryegrass, Ital. ([6]; 125 g ai/ha): 55
- Plant response rating: Russian Thistle ([7]; 16 g ai/ha): 70
- Plant response rating: Russian Thistle ([7]; 31 g ai/ha): 75
- Plant response rating: Russian Thistle ([7]; 62 g ai/ha): 85
- Plant response rating: Russian Thistle ([7]; 125 g ai/ha): 85

Compound: CCOc1nc(-c2ccc(F)cc2)nn1Cc1ccnc(C(F)(F)F)c1 [Compound 8, 4-[[5-ethoxy-3-(4-fluorophenyl)-1H-1,2,4-triazol-1-yl]methyl]-2-(trifluoromethyl)pyridine]
- Plant response rating: Field Violet ([1]; 62 g ai/ha): 100
- Plant response rating: Field Violet ([1]; 125 g ai/ha): 100
- Plant response rating: Field Violet ([1]; 250 g ai/ha): 100
- Plant response rating (scale of 0 to 100 where 0 is no effect and 100 is complete control) ([2]; 125 g ai/ha): 100
- Plant response rating (scale of 0 to 100 where 0 is no effect and 100 is complete control) ([2]; 250 g ai/ha): 100
- Lambsquarters plant response rating (0 to 100) ([2]; 31 g ai/ha): 95
- Lambsquarters plant response rating (0 to 100) ([2]; 62 g ai/ha): 98
- Plant response rating: Canarygrass ([3]; 31 g ai/ha): 55
- Plant response rating: Canarygrass ([3]; 62 g ai/ha): 60
- Plant response rating: Canarygrass ([3]; 125 g ai/ha): 65
- Plant response rating: Canarygrass ([3]; 250 g ai/ha): 75
- plant injury at 125 g/ha [8]: 80%
- plant injury at 500 g/ha [8]: 100%
- pest or weed control at 125 g/ha [9]: 100%
- pest or weed control at 500 g/ha [9]: 100%
- Ryegrass, Italian plant response rating (0 to 100) ([4]; 31 g ai/ha): 50
- Ryegrass, Italian plant response rating (0 to 100) ([4]; 62 g ai/ha): 80
- Plant response rating (scale of 0 to 100 where 0 is no effect and 100 is complete control) ([4]; 125 g ai/ha): 90
- Plant response rating (scale of 0 to 100 where 0 is no effect and 100 is complete control) ([4]; 250 g ai/ha): 90
- Ragweed plant response rating (0 to 100) ([5]; 31 g ai/ha): 75
- Ragweed plant response rating (0 to 100) ([5]; 62 g ai/ha): 85
- Plant response rating (scale of 0 to 100 where 0 is no effect and 100 is complete control) ([5]; 125 g ai/ha): 90
- Plant response rating (scale of 0 to 100 where 0 is no effect and 100 is complete control) ([5]; 250 g ai/ha): 90
- Plant response rating: Ryegrass, Ital. ([6]; 62 g ai/ha): 40
- Plant response rating: Ryegrass, Ital. ([6]; 125 g ai/ha): 95
- Plant response rating: Ryegrass, Ital. ([6]; 250 g ai/ha): 100

Compound: CCc1nc(-c2ccc(C(F)(F)F)cc2)nn1Cc1ccnc(C(F)(F)F)c1 [Compound 1, 4-[[5-ethyl-3-[4-(trifluoromethyl)phenyl]-1H-1,2,4-triazol-1-yl]methyl]-2-(trifluoromethyl)pyridine]
- Plant response rating: Field Violet ([1]; 62 g ai/ha): 95
- Plant response rating: Field Violet ([1]; 125 g ai/ha): 100
- Plant response rating: Field Violet ([1]; 250 g ai/ha): 100
- Plant response rating (scale of 0 to 100 where 0 is no effect and 100 is complete control) ([2]; 125 g ai/ha): 98
- Plant response rating (scale of 0 to 100 where 0 is no effect and 100 is complete control) ([2]; 250 g ai/ha): 98
- Lambsquarters plant response rating (0 to 100) ([2]; 31 g ai/ha): 90
- Lambsquarters plant response rating (0 to 100) ([2]; 62 g ai/ha): 98
- Plant response rating: Canarygrass ([3]; 31 g ai/ha): 15
- Plant response rating: Canarygrass ([3]; 62 g ai/ha): 20
- Plant response rating: Canarygrass ([3]; 125 g ai/ha): 35
- Plant response rating: Canarygrass ([3]; 250 g ai/ha): 65
- plant injury at 125 g/ha [8]: 20%
- plant injury at 500 g/ha [8]: 30%
- pest or weed control at 125 g/ha [9]: 100%
- pest or weed control at 500 g/ha [9]: 100%
- Ryegrass, Italian plant response rating (0 to 100) ([4]; 31 g ai/ha): 5
- Ryegrass, Italian plant response rating (0 to 100) ([4]; 62 g ai/ha): 10
- Plant response rating (scale of 0 to 100 where 0 is no effect and 100 is complete control) ([4]; 125 g ai/ha): 90
- Ragweed plant response rating (0 to 100) ([5]; 31 g ai/ha): 35
- Ragweed plant response rating (0 to 100) ([5]; 62 g ai/ha): 50
- Plant response rating (scale of 0 to 100 where 0 is no effect and 100 is complete control) ([5]; 125 g ai/ha): 60
- Plant response rating (scale of 0 to 100 where 0 is no effect and 100 is complete control) ([5]; 250 g ai/ha): 70
- Plant response rating: Ryegrass, Ital. ([6]; 62 g ai/ha): 25
- Plant response rating: Ryegrass, Ital. ([6]; 125 g ai/ha): 30
- Plant response rating: Ryegrass, Ital. ([6]; 250 g ai/ha): 35
